From article PMC7091493 (Journal of medicinal chemistry, 2019)

Target: Mtb20S (Mycobacterium tuberculosis, UniProt P9WHT9)
Format: biochemical

Sequence of Mtb20S (P9WHT9 58-291): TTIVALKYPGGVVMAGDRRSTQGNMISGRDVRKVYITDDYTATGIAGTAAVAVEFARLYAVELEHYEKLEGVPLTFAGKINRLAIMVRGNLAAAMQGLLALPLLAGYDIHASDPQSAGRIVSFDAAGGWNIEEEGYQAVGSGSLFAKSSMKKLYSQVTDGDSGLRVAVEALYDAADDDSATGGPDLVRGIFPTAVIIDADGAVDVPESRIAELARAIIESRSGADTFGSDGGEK

## Cc1cc(C(=O)N[C@@H](CC(=O)N2CCC[C@@H]2c2ccccc2)C(=O)N[C@@H](C)c2ncc(-c3ccccc3F)[nH]2)no1 [B6]
  improved potency against Mtb20S: 10 fold
